Results reported in patent US20130296413A1, “N-DESMETHYL-DOXEPIN AND METHODS OF USING THE SAME TO TREAT SLEEP DISORDERS” (Procom One, Inc., priority 2006, published 2013).

What was measured:
[1] = system: patient suffering from chronic insomnia; assay: Treatment of a patient with chronic insomnia; assay type: in vivo, human
Excerpt: A patient suffers from chronic insomnia. The patient is otherwise healthy with normal affect with no depression, anxiety or substance overuse. The patient is prescribed desmethyldoxepin in a daily dosage of 2 milligrams prior to bedtime.
A patient suffers from chronic insomnia. The patient also suffers from depression. The patient is prescribed desmethyldoxepin in a daily dosage of 1 milligram prior to bedtime.
A patient suffers from chronic insomnia. The patient also suffers from depression. The patient is prescribed desmethyldoxepin in a daily dosage of 2 milligrams prior to bedtime.
A patient suffers from chronic insomnia. The patient is otherwise healthy with normal affect with no depression, anxiety or substance overuse. The patient is prescribed desmethyldoxepin in a daily dosage of 5 milligrams prior to bedtime.
A patient suffers from chronic insomnia. The patient also suffers from depression. The patient is prescribed desmethyldoxepin in a daily dosage of 5 milligrams prior to bedtime.
A patient suffers from chronic insomnia. The patient is otherwise healthy with normal affect with no depression, anxiety or substance overuse. The patient is prescribed desmethyldoxepin in a daily dosage of 10 milligrams prior to bedtime.
A patient suffers from chronic insomnia. The patient also suffers from depression. The patient is prescribed desmethyldoxepin in a daily dosage of 10 milligrams prior to bedtime.
A patient suffers from chronic insomnia. The patient is otherwise healthy with normal affect with no depression, anxiety or substance overuse. The patient is prescribed desmethyldoxepin in a daily dosage of 20 milligrams prior to bedtime.
A patient suffers from chronic insomnia. The patient also suffers from depression. The patient is prescribed desmethyldoxepin in a daily dosage of 20 milligrams prior to bedtime.
A patient suffers from chronic insomnia. The patient is otherwise healthy with normal affect with no depression, anxiety or substance overuse. The patient is prescribed desmethyldoxepin in a daily dosage of 150 milligrams prior to bedtime.
A patient suffers from chronic insomnia. The patient also suffers from depression. The patient is prescribed desmethyldoxepin in a daily dosage of 150 milligrams prior to bedtime.

[2] = system: patient suffering from transient or short term insomnia; assay: Treatment of a patient with transient or short term insomnia; assay type: in vivo, human
Excerpt: A patient suffers from transient or short term insomnia. The patient is otherwise healthy with normal affect with no depression, anxiety or substance overuse. The patient is prescribed desmethyldoxepin in a daily dosage of 1 milligram, prior to bedtime.
A patient suffers from transient or short term insomnia. The patient is otherwise healthy with normal affect with no depression, anxiety or substance overuse. The patient is prescribed desmethyldoxepin in a daily dosage of 2 milligrams, prior to bedtime.
A patient suffers from transient or short term insomnia. The patient also suffers from depression. The patient is prescribed desmethyldoxepin in a daily dosage of 2 milligrams, prior to bedtime.
A patient suffers from transient or short term insomnia. The patient is otherwise healthy with normal affect with no depression, anxiety or substance overuse. The patient is prescribed desmethyldoxepin in a daily dosage of 5 milligrams, prior to bedtime.
A patient suffers from transient or short term insomnia. The patient also suffers from depression. The patient is prescribed desmethyldoxepin in a daily dosage of 5 milligrams, prior to bedtime.
A patient suffers from transient or short term insomnia. The patient is otherwise healthy with normal affect with no depression, anxiety or substance overuse. The patient is prescribed desmethyldoxepin in a daily dosage of 10 milligrams, prior to bedtime.
A patient suffers from transient or short term insomnia. The patient also suffers from depression. The patient is prescribed desmethyldoxepin in a daily dosage of 10 milligrams, prior to bedtime.
A patient suffers from transient or short term insomnia. The patient is otherwise healthy with normal affect with no depression, anxiety or substance overuse. The patient is prescribed desmethyldoxepin in a daily dosage of 20 milligrams prior to bedtime.
A patient suffers from transient or short term insomnia. The patient also suffers from depression. The patient is prescribed desmethyldoxepin in a daily dosage of […] prior to bedtime.
A patient suffers from transient or short term insomnia. The patient is otherwise healthy with normal affect with no depression, anxiety or substance overuse. The patient is prescribed desmethyldoxepin in a daily dosage of 150 milligrams prior to bedtime.
A patient suffers from transient or short term insomnia. The patient also suffers from depression. The patient is prescribed desmethyldoxepin in a daily dosage of 150 milligrams prior to bedtime.

[3] = daily dosage of 2 milligrams prior to bedtime, patient also suffers from depression
[4] = daily dosage of 2 milligrams prior to bedtime, patient otherwise healthy, no depression, anxiety or substance overuse
[5] = daily dosage of 5 milligrams prior to bedtime, patient also suffers from depression
[6] = daily dosage of 5 milligrams prior to bedtime, patient otherwise healthy, no depression, anxiety or substance overuse
[7] = daily dosage of 10 milligrams prior to bedtime, patient also suffers from depression
[8] = daily dosage of 10 milligrams prior to bedtime, patient otherwise healthy, no depression, anxiety or substance overuse
[9] = daily dosage of 20 milligrams prior to bedtime, patient otherwise healthy, no depression, anxiety or substance overuse
[10] = daily dosage of 150 milligrams prior to bedtime, patient also suffers from depression
[11] = daily dosage of 150 milligrams prior to bedtime, patient otherwise healthy, no depression, anxiety or substance overuse

Measured: relief of insomnia

CNCC/C=C1/c2ccccc2COc2ccccc21 [desmethyldoxepin, Desmethyldoxepin]
relieves the insomnia: [1]; daily dosage of 1 milligram prior to bedtime, patient also suffers from depression | [1]; [3] | [1]; [4] | [1]; [5] | [1]; [6] | [1]; [7] | [1]; [8] | [1]; daily dosage of 20 milligrams prior to bedtime, patient also suffers from depression | [1]; [9] | [1]; [10] | [1]; [11] | [2]; daily dosage of 1 milligram prior to bedtime, patient otherwise healthy, no depression, anxiety or substance overuse | [2]; [3] | [2]; [4] | [2]; [5] | [2]; [6] | [2]; [7] | [2]; [8] | [2]; [9] | [2]; daily dosage of 20 prior to bedtime, patient also suffers from depression | [2]; [10] | [2]; [11]
